Six cell lines from the supplement of paper PMC10307832 can be followed below.

Assay in all cases: relative viability (nuclei count vs DMSO), 5 days (fraction); higher = more cells survive
Compound in experiment [1]: CCN(CC)CCNC(=O)c1c(C)[nH]c(/C=C2\C(=O)Nc3ccc(F)cc32)c1C [Sunitinib] + CCNC(=O)c1noc(-c2cc(C(C)C)c(O)cc2O)c1-c1ccc(CN2CCOCC2)cc1 [Luminespib] (partner 0.01 µM)
Put shortly:
(§1)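 Five library-drug doses in √10 steps were combined with a fixed anchor-drug dose, or a single drug was given alone, by pin tool to lung cancer cell lines in 1536-well plates the day after seeding. Nuclei were stained and counted after 5 days. Relative viability is the nuclei count in treated wells over that in vehicle wells, taken as the median of duplicate plates.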

Compound in experiment [2]: CCN(CC)CCNC(=O)c1c(C)[nH]c(/C=C2\C(=O)Nc3ccc(F)cc32)c1C [Sunitinib] + CS(=O)(=O)CCNCc1ccc(-c2ccc3ncnc(Nc4ccc(OCc5cccc(F)c5)c(Cl)c4)c3c2)o1 [Lapatinib] (partner 2 µM)
Put shortly:
as §1

Compound in experiment [3]: CCN(CC)CCNC(=O)c1c(C)[nH]c(/C=C2\C(=O)Nc3ccc(F)cc32)c1C [Sunitinib] + Nc1ncn([C@H]2C[C@H](O)[C@@H](CO)O2)c(=O)n1 [Decitabine] (partner 2 µM)
In a few lines: as §1

Compound in experiment [4]: CCN(CC)CCNC(=O)c1c(C)[nH]c(/C=C2\C(=O)Nc3ccc(F)cc32)c1C [Sunitinib] + O=C(c1cc(Cc2n[nH]c(=O)c3ccccc23)ccc1F)N1CCN(C(=O)C2CC2)CC1 [Olaparib] (partner 8 µM)
Put shortly:
as §1

With A-427, the relative viability in experiment [1] (first compound 0.02 µM) was found to be 0.923; in experiment [1] (first compound 0.06325 µM), 1.08; in experiment [1] (first compound 0.2 µM), 1.13; in experiment [1] (first compound 2 µM), 0.903; in experiment [2] (first compound 0.02 µM) it was 1; in experiment [2] (first compound 0.06325 µM), 1.12. In addition, the relative viability in experiment [2] (first compound 0.2 µM) came to 1.11; in experiment [2] (first compound 0.6325 µM), 1.16; in experiment [2] (first compound 2 µM), 1.08; in experiment [3] (first compound 0.02 µM) it was 0.547; in experiment [3] (first compound 0.06325 µM), 0.591; in experiment [3] (first compound 0.2 µM) it was 0.57. Further, the relative viability in experiment [3] (first compound 0.6325 µM) is 0.539; in experiment [3] (first compound 2 µM) it was 0.625; in experiment [4] (first compound 0.02 µM) it was 0.701; in experiment [4] (first compound 0.06325 µM) it was 0.721; in experiment [4] (first compound 0.2 µM), 0.832; in experiment [4] (first compound 0.6325 µM) it was 0.848. The relative viability in experiment [4] (first compound 2 µM) worked out at 0.771.
Take NCI-H2085: the relative viability stood at 0.494 in experiment [1] (first compound 0.02 µM); 0.399 in experiment [1] (first compound 0.06325 µM); 0.489 in experiment [1] (first compound 0.2 µM); 0.46 in experiment [1] (first compound 0.6325 µM); 0.377 in experiment [1] (first compound 2 µM); 0.759 in experiment [2] (first compound 0.02 µM). Besides, the relative viability was 0.814 in experiment [2] (first compound 0.06325 µM); 0.791 in experiment [2] (first compound 0.2 µM); 0.856 in experiment [2] (first compound 0.6325 µM); 0.839 in experiment [2] (first compound 2 µM); 0.527 in experiment [3] (first compound 0.02 µM); 0.55 in experiment [3] (first compound 0.06325 µM). For the same cell line, the relative viability in experiment [3] (first compound 0.2 µM) was 0.554; in experiment [3] (first compound 0.6325 µM), 0.595; in experiment [3] (first compound 2 µM) it was 0.579; in experiment [4] (first compound 0.02 µM), 0.777; in experiment [4] (first compound 0.06325 µM) it was 0.801; in experiment [4] (first compound 0.2 µM), 0.819. For the same cell line, the relative viability in experiment [4] (first compound 0.6325 µM) came out at 0.808; in experiment [4] (first compound 2 µM), 0.787.
Turning to SK-MES-1, the relative viability in experiment [1] (first compound 0.02 µM) worked out at 0.729; in experiment [1] (first compound 0.06325 µM), 0.708; in experiment [1] (first compound 0.2 µM), 0.795; in experiment [1] (first compound 2 µM), 0.7; in experiment [2] (first compound 0.02 µM), 0.471; in experiment [2] (first compound 0.06325 µM), 0.502. Further, the relative viability came out at 0.487 in experiment [2] (first compound 0.2 µM); 0.481 in experiment [2] (first compound 0.6325 µM); 0.419 in experiment [2] (first compound 2 µM); 0.345 in experiment [3] (first compound 0.02 µM); 0.369 in experiment [3] (first compound 0.06325 µM); 0.368 in experiment [3] (first compound 0.2 µM). The relative viability worked out at 0.389 in experiment [3] (first compound 0.6325 µM); 0.379 in experiment [3] (first compound 2 µM); 0.643 in experiment [4] (first compound 0.02 µM); 0.7 in experiment [4] (first compound 0.06325 µM); 0.877 in experiment [4] (first compound 0.2 µM); 0.678 in experiment [4] (first compound 2 µM).
Take NCI-H1650: the relative viability in experiment [1] (first compound 0.02 µM) was determined as 0.219; in experiment [1] (first compound 0.06325 µM) it was 0.201; in experiment [1] (first compound 0.2 µM) it was 0.206; in experiment [1] (first compound 0.6325 µM), 0.198; in experiment [1] (first compound 2 µM), 0.217; in experiment [2] (first compound 0.02 µM), 0.559. Also, the relative viability in experiment [2] (first compound 0.2 µM) turned out to be 0.769; in experiment [2] (first compound 0.6325 µM) it was 0.739; in experiment [2] (first compound 2 µM) it was 0.737; in experiment [3] (first compound 0.02 µM), 0.45; in experiment [3] (first compound 0.06325 µM) it was 0.379; in experiment [3] (first compound 0.2 µM), 0.315. Besides, the relative viability was found to be 0.475 in experiment [3] (first compound 0.6325 µM); 0.416 in experiment [3] (first compound 2 µM); 0.744 in experiment [4] (first compound 0.02 µM); 0.742 in experiment [4] (first compound 0.06325 µM); 0.822 in experiment [4] (first compound 0.2 µM); 0.791 in experiment [4] (first compound 0.6325 µM). In experiment [4] (first compound 2 µM), the relative viability worked out at 0.738.
Consider EKVX, for which the relative viability in experiment [1] (first compound 0.02 µM) worked out at 0.811; in experiment [1] (first compound 0.06325 µM), 0.918; in experiment [1] (first compound 0.2 µM), 0.747; in experiment [1] (first compound 0.6325 µM), 0.942; in experiment [1] (first compound 2 µM) it was 0.936; in experiment [2] (first compound 0.02 µM) it was 0.213. For the same cell line, the relative viability in experiment [2] (first compound 0.06325 µM) came to 0.227; in experiment [2] (first compound 0.2 µM) it was 0.193; in experiment [2] (first compound 0.6325 µM), 0.233; in experiment [2] (first compound 2 µM) it was 0.241; in experiment [3] (first compound 0.02 µM), 0.352; in experiment [3] (first compound 0.06325 µM), 0.384. Also, the relative viability in experiment [3] (first compound 0.2 µM) turned out to be 0.45; in experiment [3] (first compound 0.6325 µM), 0.382; in experiment [3] (first compound 2 µM), 0.412; in experiment [4] (first compound 0.02 µM) it was 0.941; in experiment [4] (first compound 0.06325 µM), 0.991; in experiment [4] (first compound 0.2 µM), 0.952. For the same cell line, the relative viability amounted to 0.957 in experiment [4] (first compound 0.6325 µM) and 0.97 in experiment [4] (first compound 2 µM).
Turning to NCI-H2009, the relative viability in experiment [1] (first compound 0.02 µM) came out at 1.02; in experiment [1] (first compound 0.06325 µM), 1.05; in experiment [1] (first compound 0.2 µM) it was 1.18; in experiment [1] (first compound 0.6325 µM), 1.04; in experiment [1] (first compound 2 µM) it was 1.04; in experiment [2] (first compound 0.02 µM) it was 0.929. For the same cell line, the relative viability was 1.34 in experiment [2] (first compound 0.06325 µM); 0.995 in experiment [2] (first compound 0.2 µM); 1.18 in experiment [2] (first compound 2 µM); 0.349 in experiment [3] (first compound 0.02 µM); 0.364 in experiment [3] (first compound 0.06325 µM); 0.371 in experiment [3] (first compound 0.2 µM). Besides, the relative viability in experiment [3] (first compound 0.6325 µM) came to 0.424; in experiment [3] (first compound 2 µM), 0.373; in experiment [4] (first compound 0.02 µM), 0.675; in experiment [4] (first compound 0.06325 µM), 0.739; in experiment [4] (first compound 0.2 µM) it was 0.717; in experiment [4] (first compound 0.6325 µM) it was 0.799. The relative viability in experiment [4] (first compound 2 µM) was 0.778.
